Test results: patent US20240023549A1 (published 2024)

| melting point [°C] | SMILES |
| --- | --- |
| 147 to 149 | CCN(C)/C=N/c1cc(C)c(C(=O)Nc2ccccc2)cc1C |
| 89 to 92 | CCN(C)/C=N/c1cc(C)c(C(=O)n2ccc3cc(C(F)(F)F)ccc32)cc1C |
